{"source": "paper PMC3511524", "about": "“Ant Trail Pheromone Biosynthesis Is Triggered by a Neuropeptide Hormone” (PLoS ONE, 2012)", "target": "T1, SolinPBAN-R (Solenopsis invicta, UniProt L0APC6)", "T1 sequence (L0APC6 1-605)": "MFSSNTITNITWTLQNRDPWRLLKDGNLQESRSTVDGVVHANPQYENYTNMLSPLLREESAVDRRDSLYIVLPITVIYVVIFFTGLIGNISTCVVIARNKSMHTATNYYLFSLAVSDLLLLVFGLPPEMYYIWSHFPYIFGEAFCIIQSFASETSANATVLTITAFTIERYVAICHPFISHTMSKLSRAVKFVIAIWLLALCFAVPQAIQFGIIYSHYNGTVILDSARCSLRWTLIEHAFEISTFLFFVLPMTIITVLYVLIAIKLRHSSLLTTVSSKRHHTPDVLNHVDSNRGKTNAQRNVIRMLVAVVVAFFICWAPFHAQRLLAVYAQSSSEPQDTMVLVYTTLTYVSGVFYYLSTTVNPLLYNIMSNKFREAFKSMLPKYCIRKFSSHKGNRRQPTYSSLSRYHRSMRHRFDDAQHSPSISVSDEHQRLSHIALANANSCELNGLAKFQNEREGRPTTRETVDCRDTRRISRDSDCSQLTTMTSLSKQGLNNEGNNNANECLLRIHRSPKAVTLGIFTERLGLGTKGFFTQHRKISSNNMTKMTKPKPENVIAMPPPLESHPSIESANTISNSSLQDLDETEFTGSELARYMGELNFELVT", "assay": "SolinPBAN-R/peptide binding assay (calcium-based Fluo-4AM fluorescence in Sf9 cells expressing SolinPBAN-R)", "assay_type": "cell-based", "conditions": "for EC50: SolinPBAN-R expressed in Sf9 cells, Fluo-4AM fluorescence relative to 1 µM ionomycin maximum, read-out: EC50 (half-maximal effective concentration), binding activity to SolinPBAN-R", "procedure": "Poly(A) RNA was isolated from whole bodies and heads of S. invicta workers and mature female alates for synthesis cDNA as described previously. Synthesized cDNA was amplified with a degenerate primer set: 5′-[…]-3′ ([…]) and 5′-[…]-3′ ([…]) mostly conserved in TM2 and TM7 domains from insect PBAN-Rs [25]–[27]. PCR was performed for 35 cycles at 95°C for 30 s, 50°C for 30 s, and 72°C for 1 min. The PCR product was directly sequenced by Interdisciplinary Center for Biotechnology Research (ICBR, University of Florida), and then the sequence result was used to design further gene-specific primers to find 5′- and 3′- ends of the fire ant PBAN-R cDNA. 5′-RACE (GeneRacer kit, Invitrogen) was performed using primers 5′-[…]-3′ (from nucleotide 1106) and 5′-[…]-3′ (from nucleotide 588) by the 5′-RACE kit (Invitrogen). 3′-RACE was performed using primers 5′-[…] NTTYCA-3′ (from nucleotide 1199), 5′-[…] […]-3′ (from nucleotide 1336) and 5′-[…]-3′ (from nucleotide 1392). Then PCR products were inserted into a subcloning vector (TOPO-TA, Invitrogen) and confirmed the nucleotides by DNA sequence. Sequences of the receptor DNA and corresponding amino acids were analyzed by Genetyx software ver. 10 (Genetyx Corporation) and PredictProtein software. The ORF of PBAN-R cDNA was amplified using the sense primer of 5′- […] […]-3′ (from nucleotide 255 including the NotI site) and 5′-[…] […]-3′ (from nucleotide 2122 including the XbaI site). The PCR product was ligated into a pIBV5His vector (Invitrogen) for expression in Sf9 cells as described previously.\nAll peptides used in this study were synthesized or purchased from Sigma Genosys or Peninsula Laboratories. The preparation of cells, peptides, and Fluo-4AM with hymenopteran saline followed a previously described method. Cell fluorescence intensity in a 96-well cell-culture was measured using a plate reader (BMG's NovoStar) equipped with filters (excitation: 485 nm and emission: 520 nm), and one pipetter and two injectors. Fluorescence measurements from each well were taken every 10s. After 30s PBAN or FXPRL peptide (10 µL) was added by pipetter and fluorescent changes were measured for up to 3 min. Then, 1 µM ionomycin (5 µL) was added into the cells to obtain a maximum fluorescence reading. The effect of ligand-exposure was expressed relative to the maximum value obtained with ionomycin. Data were analyzed using Microsoft EXCEL as described previously and measured EC50 values of ligands were determined using GraphPad Prism 4.03 software.\nThe PBAN/pyrokinin family of peptides and their receptors are currently classified as PK1 or PK2. Diapause Hormone (DH) peptides and their receptors are classified as type PK1. PBAN and other PBAN family peptides, and their receptors are classified as type PK2 [12]. To verify our SolinPBAN-R assignment we determined binding affinities for a number of PK1 ( = DH type) and PK2 ( = PBAN type) neuropeptides to SolinPBAN-R (Table 1). We expressed SolinPBAN-R in Spodoptera frugiperda 9 (Sf9) insect cells, which enabled binding specificity studies by measurement of calcium-based fluorescence intensity (Fig. 3A and Table 1). […] The SolinPBAN/pyrokinin gene is expressed in all life stages in fire ant, from egg to adult; however, the disposition of the four SolinPBAN/pyrokinin peptides in each life stage, as well as the possibility of additional receptors is unknown and currently under investigation.", "note": "Read-outs that look alike come from different tables or passages of the source. Ends that are not written are not given here."}
{"substance": "GSGEDLSYGDAYEVDEDDHPLFVPRL-NH2 [SolinPBAN]", "values": [{"measurement": "EC50 value times less than HelzePBAN", "setting": "18 nM vs. 56 nM, Sf9 cells expressing SolinPBAN-R", "value": 3, "unit": "times"}, {"measurement": "EC50", "setting": "N≥4", "value": 18, "unit": "nM"}]}
{"substance": "LSDDMPATPADQEMYRQDPEQIDSRTKYFSPRL-NH2 [HelzePBAN]", "values": [{"measurement": "EC50", "setting": "N≥4", "value": 56, "unit": "nM"}]}
{"substance": "NDVKDGAASGAHSDRLGLWFGPRL-NH2 [HelzePGN24 (DH)]", "values": [{"measurement": "EC50", "value": "> 1000", "unit": "nM"}]}
{"substance": "SVPFKPRL-NH2 [DromePK2]", "values": [{"measurement": "EC50", "setting": "N≥4", "value": 163, "unit": "nM"}]}
{"substance": "TGPSASSGLWFGPRL-NH2 [DromePK1]", "values": [{"measurement": "EC50", "value": "> 1000", "unit": "nM"}]}
{"substance": "TSQDIASGMWFGPRL-NH2 [SolinDH]", "values": [{"measurement": "EC50", "setting": "N≥4", "value": 125, "unit": "nM"}]}
